Values quoted from earlier work in patent US9603795B2, “Composite for preparing a transdermal delivery device and method for synthesizing the composite thereof” (City University of Hong Kong, priority 2014, dated 2017).

Conditions: oral administration

OC[C@H]1O[C@@H]2O[C@H]3[C@H](O)[C@@H](O)[C@@H](O[C@H]4[C@H](O)[C@@H](O)[C@@H](O[C@H]5[C@H](O)[C@@H](O)[C@@H](O[C@H]6[C@H](O)[C@@H](O)[C@@H](O[C@H]7[C@H](O)[C@@H](O)[C@@H](O[C@H]8[C@H](O)[C@@H](O)[C@@H](O[C@H]1[C@H](O)[C@H]2O)O[C@@H]8CO)O[C@@H]7CO)O[C@@H]6CO)O[C@@H]5CO)O[C@@H]4CO)O[C@@H]3CO [β-CD, β-cyclodextrin]
amount absorbed in the upper intestinal tract: 1-2%
